From patent US12162874B2, “Peptidomimetic-based antibody surrogate for HER2” (University of South Florida, priority 2021, dated 2024)
Values joined by “and” are separate entries in the source; they are usually repeats but may differ in a detail not shown here. Equal values may be shown once. “Also recorded” adds a separate entry of the source.

Assays:
[1] = target: T1, HER2 (Homo sapiens, UniProt P04626); test: Fluorescence polarization (FP) binding assay; details: 50 nM FITC labeled AApeptide, HER2 0 to 2 μM in PBS
T1 construct: Fc (human IgG Fc); purchased Creative BioMart
Experimental: The FP experiment was performed by incubating 50 nM FITC labeled AApeptides with HER2 (0 to 2 μM) in PBS. Dissociation constants (Kd) was determined by plotting the fluorescence anisotropy values as a function of protein concentration, and the plots were fitted to the following equation. The Lst is the concentration of the AApeptides and the x stands for the concentration of the protein. The experiments were conducted in triplicates and repeated for three times. y=FPmin+(FPmax−FPmin)*(KD+Lst+x-sqrt((KD+Lst+x)^2−4*Lst*x))/(2*Lst)

[2] = test system: P-ERK; test: Western blot of ERK phosphorylation in SKBR3 cells; type: cell-based; details: for phosphorylation of ERK (in words): SKBR3 cell lysates, western blot
Experimental: (§1) SKBR3 cells were seeded into a 6-well plate at a concentration of 1×10^5 cells/well. After 12 h attachment at 37° C. and 5% CO2, the cells were starved overnight in serum-reduced McCoy's 5A Medium followed by treatment with different concentration of M-3-6 or M-3-6-D for 4 h, and then washed with ice-cold PBS and resuspended in ice-cold RIPA buffer supplemented with Halt Protease and Phosphatase Inhibitor Cocktail. Subsequently, the cells were incubated on ice for 10 min and centrifuged at 14,000×g at 4° C. for 10 min. An equal amount of protein was run on 4-12% Bis-Tris gels, transferred to polyvinylidene difluoride membranes (Millipore) and western blotted with anti-phosphorylated HER2, anti-phosphorylated AKT, anti-phosphorylated ERK and GAPDH. The experiments were conducted in triplicates and repeated for three times.

[3] = target: EGFR (Homo sapiens, UniProt P00533); test: Surface plasmon resonance (SPR) binding to EGFR (selectivity)
Experimental: Next, the binding affinity of both M-3-6 and M-3-6-D to HER2 ECD in vitro were measured by surface plasmon resonance (SPR) assay (FIG. 10 in supporting information). […]. In addition, EGFR, known as ERBB1, another member of the human epidermal growth factor receptor family was chosen to test the selectivity of M-3-6. […].
Binding kinetics of M-3-6 or M-3-6-D to HER2 was measured by surface plasmon resonance (OpenSPR, Nicoyalife). After HER2 was covalently coupled to the carboxyl sensor chips (Nicoyalife), M-3-6 or M-3-6-D in PBS running buffer (pH 7.4) was slowly flowed over the sensor chip for 5 min to allow interaction. The running buffer was then allowed to flow for 10 min to collect the dissociation data. After subtracting the background, the signal response vs. time curve was obtained, binding kinetic parameters were obtained by fitting the curve to a one-to-one binding model using Trace-Drawer (Nicoyalife) software.

[4] = test system: P-HER2; test: Immunohistochemical staining of SKBR3 tumor sections; type: in vivo, mouse; details: tumors resected after sacrifice
Experimental: For the immunohistochemical analysis, the hydrated paraffin section was incubated in a blocking solution (10% donkey serum +5% nonfat dry milk +4% BSA +0.1% Triton X-100) for 10 min, and then incubated at 4° C. overnight with anti-P-HER2, P-AKT, P-ERK. After washing with PBS, the sections were incubated with diluted (1:200) biotinylated secondary antibody for 30 min. Subsequently, the sections were washed again in PBS and incubated for 30 min with the preformed avidin-horseradish peroxidase macromolecular complex. Development of peroxidase reaction was achieved by incubation in 0.01% 3, 3-diaminobenzidine tetrahydrochloride (DAB) in PBS containing 0.01% hydrogen peroxide for approximately 5 min at room temperature. Sections were then washed thoroughly in tap water, counterstained in haematoxylin, dehydrated in absolute alcohol, cleared in xylene and mounted in synthetic resin for microscopic examination.

[5] = test system: SKBR3 cells; test: Inhibition of EGF-induced cell proliferation (CCK-8); type: cell-based; details: SKBR3, EGF 100 ng/mL
Experimental: SKBR3 cells were cultured in McCoy's 5A Medium (Gibco) medium containing 10% fetal bovine serum and 1% penicillin/streptomycin in an atmosphere of 5% CO2 at 37° C.
SKBR3 cells in good condition were seeded into a 96-well plate at a concentration of 1×10^3 cells/well in 100 μL of complete growth medium. After 24 hours of attachment at 37° C. and 5% CO2, medium was replaced by fresh serum reduced McCoy's 5A Medium and cell were serum-starved overnight. Then serum-reduced EGF (100 ng/mL) McCoy's 5A Medium in the presence of different concentration of M-3-6 and M-3-6-D was added to the cells in hexaplicate. After 72 h, the CCK-8 reagents were added according to the manufacturer's recommendations.

[6] = i.p. every two days for two weeks
Experimental: SKBR3 cells were harvested, resuspended in PBS, and injected subcutaneously into 4-6 weeks old Male BALB/c nude mice. […] Mice were injected through the intraperitoneal every two days for seven injections.

[7] = test system: SKBR3 tumor xenograft; test: Antitumor study in SKBR3 xenograft nude mice, tumor volume; type: in vivo, mouse; details: for tumor volume after the last drug injection on day 12: after end of dosing, until day 24
Experimental: Male BALB/c nude mice, 4-6 weeks old, were provided by the Shanghai Bikai Experimental Animal Center, with the license number SOXK (Hu) 2008-0016, and maintained under specific-pathogen-free conditions.
SKBR3 cells were harvested, resuspended in PBS, and injected subcutaneously into 4-6 weeks old Male BALB/c nude mice. […] Mice were injected through the intraperitoneal every two days for seven injections. 12 days after injection, the mice in each group were killed, and the tumors were removed for examination. The tumor volumes were determined by measuring length (1) and width (w) and calculating volume (V=lw^2/2).

[8] = test system: P-AKT; test: Western blot of AKT phosphorylation in SKBR3 cells; type: cell-based
Experimental: as §1

[9] = test system: P-HER2; test: Western blot of HER2 phosphorylation in SKBR3 cells; type: cell-based, human; details: for inhibition of HER2 phosphorylation (in words): SKBR3 cell lysates, western blot; for expression of P-HER2: 10 μM
Experimental: as §1

[10] = target: T2, HER2 ECD (Homo sapiens, UniProt P04626); test: Surface plasmon resonance (SPR) binding to HER2
T2 construct: Fc (human IgG Fc); purchased Creative BioMart

[11] = test system: pronase; details: 0.1 mg/mL pronase, 100 mM ammonium bicarbonate buffer, 37° C., 24 h
Text: Then, the reaction mixtures were concentrated in a speed vacuum to remove water and ammonium bicarbonate. The resulting residues were re-dissolved in H2O/MeCN and analyzed on a Waters analytical HPLC system.

[12] = 8 mg/kg i.p. every two days for two weeks

T1 sequence (P04626 23-652): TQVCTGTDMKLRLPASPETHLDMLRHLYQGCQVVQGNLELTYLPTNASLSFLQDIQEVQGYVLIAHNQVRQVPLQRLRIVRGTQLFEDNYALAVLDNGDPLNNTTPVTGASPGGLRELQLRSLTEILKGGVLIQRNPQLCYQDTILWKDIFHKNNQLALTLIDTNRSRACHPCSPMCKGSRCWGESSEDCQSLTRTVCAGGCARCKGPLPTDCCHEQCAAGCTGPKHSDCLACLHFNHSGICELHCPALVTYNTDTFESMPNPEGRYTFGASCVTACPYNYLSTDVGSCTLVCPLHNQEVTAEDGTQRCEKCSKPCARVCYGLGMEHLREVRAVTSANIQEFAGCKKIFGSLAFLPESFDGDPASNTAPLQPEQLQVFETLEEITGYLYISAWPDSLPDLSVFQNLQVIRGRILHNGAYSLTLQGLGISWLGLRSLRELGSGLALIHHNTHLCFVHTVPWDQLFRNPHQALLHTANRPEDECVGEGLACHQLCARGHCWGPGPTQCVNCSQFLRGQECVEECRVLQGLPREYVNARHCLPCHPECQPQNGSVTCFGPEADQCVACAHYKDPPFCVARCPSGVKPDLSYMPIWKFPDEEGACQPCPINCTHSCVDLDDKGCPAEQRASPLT
Sequence of EGFR (P00533 25-1210): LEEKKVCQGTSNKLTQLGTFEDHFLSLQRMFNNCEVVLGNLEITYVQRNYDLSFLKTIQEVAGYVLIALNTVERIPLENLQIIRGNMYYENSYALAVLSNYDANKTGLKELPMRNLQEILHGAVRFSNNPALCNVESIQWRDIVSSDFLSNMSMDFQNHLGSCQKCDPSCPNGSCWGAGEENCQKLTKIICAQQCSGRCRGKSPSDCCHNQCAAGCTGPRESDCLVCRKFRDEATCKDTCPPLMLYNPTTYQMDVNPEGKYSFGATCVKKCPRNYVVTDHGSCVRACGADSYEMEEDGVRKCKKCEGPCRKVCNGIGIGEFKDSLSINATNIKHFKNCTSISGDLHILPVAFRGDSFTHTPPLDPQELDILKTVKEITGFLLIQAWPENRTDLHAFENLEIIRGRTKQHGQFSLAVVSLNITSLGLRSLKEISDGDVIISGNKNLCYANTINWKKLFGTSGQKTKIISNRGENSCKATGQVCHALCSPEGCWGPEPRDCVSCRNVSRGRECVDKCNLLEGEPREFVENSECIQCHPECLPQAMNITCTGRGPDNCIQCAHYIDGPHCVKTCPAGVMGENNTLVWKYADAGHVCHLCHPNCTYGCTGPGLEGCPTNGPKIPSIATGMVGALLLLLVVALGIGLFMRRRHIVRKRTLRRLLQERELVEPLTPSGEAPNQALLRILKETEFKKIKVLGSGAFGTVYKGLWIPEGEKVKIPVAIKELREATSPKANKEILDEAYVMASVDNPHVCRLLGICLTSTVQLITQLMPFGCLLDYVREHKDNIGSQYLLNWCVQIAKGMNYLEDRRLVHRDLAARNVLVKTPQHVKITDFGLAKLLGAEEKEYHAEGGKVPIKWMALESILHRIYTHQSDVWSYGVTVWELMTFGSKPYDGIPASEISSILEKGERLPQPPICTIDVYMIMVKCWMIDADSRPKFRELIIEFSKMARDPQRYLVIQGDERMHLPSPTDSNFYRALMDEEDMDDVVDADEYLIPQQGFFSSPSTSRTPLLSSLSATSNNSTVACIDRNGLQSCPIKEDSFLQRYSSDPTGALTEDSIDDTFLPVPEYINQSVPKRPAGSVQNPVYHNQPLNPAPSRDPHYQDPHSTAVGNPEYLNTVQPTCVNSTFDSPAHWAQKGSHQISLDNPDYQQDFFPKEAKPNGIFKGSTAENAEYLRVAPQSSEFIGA
T2 sequence (P04626 23-652): as the sequence (P04626 23-652) above

SMILES	Kd [1]	phosphorylation of ERK (in words) [2]	IC50 ([2]; SKBR3 cells, 4 h)	weaker binding to EGFR than to HER2 [3]	phosphorylation level of HER2 in tumor sections [4]	inhibition of EGF-induced proliferation (in words) [5]	IC50 ([5]; serum-reduced, 72 h, read-out: IC50 antiproliferative activity on EGF-stimulated cells)	effect on body weight gain [6]	tumor volume / antitumor effect [7, 12]	tumor volume / antitumor effect ([7]; 32 mg/kg i.p. every two days for two weeks)	tumor volume after the last drug injection on day 12 [7]	phosphorylation of AKT (in words) ([8]; SKBR3 cell lysates, western blot)	IC50 ([8]; SKBR3 cells, 4 h)	inhibition of HER2 phosphorylation (in words) [9]	IC50 ([9]; SKBR3 cells, 0-30 μM, 4 h, read-out: IC50 inhibition of HER2 phosphorylation)	expression of P-HER2 ([9]; SKBR3 cells, 4 h)	improvement of binding to HER2 compared with monomer M-3-6 [10]	degradation by pronase monitored by HPLC [11]
COc1cc(CC(=O)N2CC(=O)N[C@@H](Cc3ccccc3)CN(C(=O)Cc3ccc4ccccc4c3)CC(=O)N[C@@H](CCCCN)CN(C(=O)Cc3ccc4c(c3)OCO4)CC(=O)N[C@@H](CCCCN)CN(CC(=O)NCCC(=O)NC(CCCCNC(=S)Nc3ccc(-c4c5ccc(=O)cc-5oc5cc(O)ccc45)c(C(=O)O)c3)C(N)=O)C(=O)CCSCc3ccc(cc3)C(=O)N[C@@H](CC(C)C)C2)cc(OC)c1 (some centres unmarked) [M-3-6-F]	0.28 µM and 0.278 µM																	
COc1cc(CC(=O)N2CC(=O)N[C@@H](Cc3ccccc3)CN(C(=O)Cc3ccc4ccccc4c3)CC(=O)N[C@@H](CCCCN)CN(C(=O)Cc3ccc4c(c3)OCO4)CC(=O)N[C@@H](CCCCN)CN(CC(N)=O)C(=O)CCSCc3ccc(cc3)C(=O)N[C@@H](CC(C)C)C2)cc(OC)c1 [M-3-6]		reduction in the phosphorylation of AKT and ERK	10.6 µM	10 fold	modest inhibitory effect	inhibited EGF-induced proliferation significantly in a dose-dependent manner	17.9 µM	ignorable effect on the body weight gain	no significant reduction in tumor volume	much more improved antitumor effect	significant tumor growth	reduction in the phosphorylation of AKT and ERK	16.9 µM	dose-dependent inhibition of HER2 receptor phosphorylation	12.9 µM	relatively high		
COc1cc(CC(=O)N2CC(=O)N[C@@H](Cc3ccccc3)CN(C(=O)Cc3ccc4ccccc4c3)CC(=O)N[C@@H](CCCCN)CN(C(=O)Cc3ccc4c(c3)OCO4)CC(=O)N[C@@H](CCCCN)CN(CC(=O)N[C@@H](CCCCNC(=O)COCCOCCNC(=O)Cn3cc(COc4cc(OCc5cn(CC(=O)NCCOCCOCC(=O)NCCCC[C@H](NC(=O)CN6C[C@H](CCCCN)NC(=O)CN(C(=O)Cc7ccc8c(c7)OCO8)C[C@H](CCCCN)NC(=O)CN(C(=O)Cc7ccc8ccccc8c7)C[C@H](Cc7ccccc7)NC(=O)CN(C(=O)Cc7cc(OC)cc(OC)c7)C[C@H](CC(C)C)NC(=O)c7ccc(cc7)CSCCC6=O)C(N)=O)nn5)cc(C(=O)NCCNC(=O)OC(C)(C)C)c4)nn3)C(N)=O)C(=O)CCSCc3ccc(cc3)C(=O)N[C@@H](CC(C)C)C2)cc(OC)c1 [M-3-6-D]		more pronounced effect on the suppression of P-ERK compared with P-AKT			comparable efficiency with trastuzumab	inhibited EGF-induced proliferation significantly in a dose-dependent manner		ignorable effect on the body weight gain	significantly inhibit the tumor growth; also recorded: significant antitumor effect		significant reduction in tumor volume was still observed			even stronger inhibition of phosphorylation than M-3-6; also recorded: much more effective phosphorylation inhibition compared with M-3-6		almost complete blocked	~7 fold	no detectable degradation
